Results from article PMC11062922 (Nature Chemical Biology, 2023).
Read-outs that look alike come from different tables or passages of the source.

How the values were obtained:
ABL1 = ABL1 (Homo sapiens, UniProt P00519); assay: Kinobeads two-dose competition binding: ABL1; details: sheet CATDS matrix 2; Gene Name ABL1
AAK1 = molecular target: T1, AAK1 (Homo sapiens, UniProt Q2M2I8); assay: Kinobeads two-dose competition binding: AAK1;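 further: kinobeads competition pulldown from cell lysate, compound preincubated 45 min at 4 °C, bead-bound protein measured by label-free mass spectrometry against DMSO vehicle control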
T1 construct: to maximize the representation of endogenous proteins; endogenous in cells

GAK = molecular target: T2, GAK (Homo sapiens, UniProt O14976); assay: Kinobeads two-dose competition binding: GAK; details: for CATDS: target GAK
T2 construct: endogenous in cells
T2 sequence (O14976 1-1311): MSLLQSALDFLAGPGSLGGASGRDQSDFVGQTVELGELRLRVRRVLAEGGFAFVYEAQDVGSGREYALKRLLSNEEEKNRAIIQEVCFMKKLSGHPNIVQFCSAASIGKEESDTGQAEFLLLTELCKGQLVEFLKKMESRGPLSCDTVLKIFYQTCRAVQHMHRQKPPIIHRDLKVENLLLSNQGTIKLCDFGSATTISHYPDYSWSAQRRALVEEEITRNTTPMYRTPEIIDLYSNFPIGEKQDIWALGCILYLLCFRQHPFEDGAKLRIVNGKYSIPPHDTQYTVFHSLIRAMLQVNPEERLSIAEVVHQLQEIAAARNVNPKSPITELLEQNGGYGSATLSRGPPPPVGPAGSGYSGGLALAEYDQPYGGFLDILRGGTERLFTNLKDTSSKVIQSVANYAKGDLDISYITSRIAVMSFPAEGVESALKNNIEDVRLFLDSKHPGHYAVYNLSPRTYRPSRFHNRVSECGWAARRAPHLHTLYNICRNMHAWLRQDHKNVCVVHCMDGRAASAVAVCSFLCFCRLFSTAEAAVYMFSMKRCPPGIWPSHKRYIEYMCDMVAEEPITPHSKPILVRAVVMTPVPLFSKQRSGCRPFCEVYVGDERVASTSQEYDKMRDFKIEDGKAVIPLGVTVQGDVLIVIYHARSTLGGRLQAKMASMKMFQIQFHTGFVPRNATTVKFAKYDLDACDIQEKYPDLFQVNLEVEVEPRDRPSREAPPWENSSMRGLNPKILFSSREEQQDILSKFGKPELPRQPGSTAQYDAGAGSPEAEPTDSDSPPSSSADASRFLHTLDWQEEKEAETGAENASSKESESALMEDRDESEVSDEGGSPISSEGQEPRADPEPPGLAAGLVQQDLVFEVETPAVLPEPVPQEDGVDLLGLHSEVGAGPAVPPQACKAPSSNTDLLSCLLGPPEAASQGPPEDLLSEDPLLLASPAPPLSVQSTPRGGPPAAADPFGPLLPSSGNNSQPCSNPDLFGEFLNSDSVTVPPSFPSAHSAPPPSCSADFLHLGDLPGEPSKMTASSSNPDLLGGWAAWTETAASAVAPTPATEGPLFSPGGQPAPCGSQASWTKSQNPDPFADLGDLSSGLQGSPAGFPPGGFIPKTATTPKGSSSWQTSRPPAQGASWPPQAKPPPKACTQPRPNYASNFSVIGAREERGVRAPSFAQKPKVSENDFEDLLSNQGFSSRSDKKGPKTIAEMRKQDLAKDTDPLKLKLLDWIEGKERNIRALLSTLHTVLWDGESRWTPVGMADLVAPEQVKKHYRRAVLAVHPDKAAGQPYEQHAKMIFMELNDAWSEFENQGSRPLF
Source text: (§1) Briefly, Kinobeads comprise seven broad-spectrum small molecule kinase inhibitors immobilized on Sepharose beads. […]. Compounds of interest are set to compete for target protein binding with Kinobeads in the lysate and the amount of a given protein bound to Kinobeads in the presence of a compound can be quantified relative to a dimethylsulfoxide (DMSO) vehicle control by label-free mass spectrometry. This assay measures the physical interaction of a compound with thousands of endogenous proteins in parallel and, when systematically increasing the concentration of competitor, enables the calculation of an apparent interaction constant ( Kdapp ) for each compound and protein.
(§2) Kinobeads pulldown experiments were performed as described previously[13],[14],[17] with minor modification. […] The protein concentration was adjusted to 5 mg ml^−1. Kinase inhibitors were spiked into 0.5 ml of cell lysate at final concentrations of 100 and 1,000 nM (or DMSO, 0.3, 1, 3, 10, 30, 100, 300 and 1,000 nM for full dose experiments). […] Lysates were incubated for 45 min at 4 °C. Subsequently, lysates were incubated with Kinobeads ε (17.5 µl of settled beads) for 30 min at 4 °C. To assess the degree of protein depletion from the lysates by Kinobeads, the flow through of the DMSO control was recovered for a pulldown of pulldown experiment where the lysate was incubated a second time with fresh Kinobeads. Beads were washed in three steps with buffer containing 0.4%, 0.2% and no IGEPAL. Bound proteins were reduced with 50 mM DTT in 8 M Urea, 40 mM Tris-HCl pH 7.4 for 30 min at room temperature. After alkylation with 55 mM chloroacetamide, the urea concentration was reduced to 1–2 M and proteins were digested with trypsin. Acidified peptides were desalted and concentrated using SepPak tC18 µEluation plates (Waters). Samples were frozen, dried by vacuum centrifugation and stored at −20 °C.
(§3) Each kinase inhibitor was processed together with all DMSO controls of the same plate. Additionally, each search was supplemented with five high quality DMSO controls for consistent peptide identification and protein grouping. The resultant file (proteinGroups.txt) was used for subsequent filtering, normalization, data visualization and target annotation that was automatically performed by a data processing pipeline built in house that used R (including the ‘drc’ and ‘heatmap’ packages). First, reverse hits, potential contaminants and not quantified proteins in the DMSO control samples were discarded. Protein raw and label-free quantification intensities were normalized to the median DMSO control intensity to obtain relative residual binding intensities for each protein group at every inhibitor concentration and standard deviations of the DMSO control intensity were calculated. IC50 values were estimated based on the following equation IC50=I×100−inhibition/inhibition where [I] is the inhibitor concentration that was used for IC50 calculation and ‘inhibition’ the relative residual binding intensity. […]. Estimated Kdapp values were then calculated by multiplying the estimated IC50 values with a protein-dependent correction factor that was limited to a maximum value of one. The correction factor accounts for the depletion of a target protein from the lysate by Kinobeads. The depletion can be measured by the ratio of the amount of protein captured in two consecutive pulldowns of the same DMSO control lysate. In this study, correction factors were determined in separate experiments using the same lysate mixture and the same bead batch. Correction factors were set to the median of all correction factors. Targets of kinase inhibitors were annotated using the previously published random forest classifier. A training data set was annotated manually. […]

CSNK2A1 (CK2) = molecular target: T3, CSNK2A1 (CK2) (Homo sapiens, UniProt P68400); assay: Kinobeads two-dose competition binding: CK2 (CSNK2A1)
T3 construct: endogenous in cells

CSNK2A2 = CSNK2A2 (Homo sapiens, UniProt P19784); assay: Kinobeads two-dose competition binding: CSNK2A2; design: to maximize the representation of endogenous proteins; endogenous in cells; details: for CATDS: target CSNK2A2
Source text: as §1, §2, §3

[1] = sheet CATDS matrix 2, Gene Name AAK1

Row | Compound | CATDS (ABL1) | CATDS (AAK1; [1]) | CATDS (GAK) | CATDS (AAK1; target AAK1) | CATDS (CSNK2A1 (CK2); target CSNK2A1;CSNK2A3) | CATDS (CSNK2A2) | further results
1 | CC(C)N1CC(=O)N(C)c2cnc(Nc3cccc(S(=O)(=O)CCN4CCOCC4)c3)nc21 [BI00009348] | 0 | 0.07467 |  |  |  |  | potency estimated from few doses (AAK1; sheet "Kinobeads Drugmatrix - all", unit inferred, same values below 1000 recur in sheet "nanomolar", read-out: Kinobeads Drugmatrix - all: apparent Kd, AAK1): 0.662 µM
2 | C[C@]12O[C@H](C[C@]1(O)CO)n1c3ccccc3c3c4c(c5c6ccccc6n2c5c31)CNC4=O [Lestaurtinib] |  |  |  |  |  |  | potency estimated from few doses (GAK; read-out: Lestaurtinib Drugmatrix value, Gene Name GAK): 0.577 µM; potency estimated from few doses (CSNK2A1 (CK2); read-out: Lestaurtinib Drugmatrix value, Gene Name CSNK2A1;CSNK2A3, target CSNK2A1;CSNK2A3, each column = one Lestaurtinib control replicate (batch_R1-R3)): 0.291 µM; potency estimated from few doses (CSNK2A2; read-out: Lestaurtinib Drugmatrix value, Gene Name CSNK2A2): 0.415 µM
3 | Nc1ncnc2[nH]c(-c3ccccc3)nc12 [AH5015_KCGS] | 0 | 0 | 0.09213 | 0 | 0 | 0 | potency estimated from few doses (CSNK2A2; Kinobeads two-dose screen (binding), read-out: Kdapp CSNK2A2): > 1 µM
4 | CCc1cc2c(cc1N1CCC(N3CCOCC3)CC1)C(C)(C)c1[nH]c3cc(C#N)ccc3c1C2=O [Alectinib] | 0 | 0 | 0.6004 | 0 | 0 | 0 | 
5 | CCN1CCN(Cc2ccc(Nc3ncc(F)c(-c4cc(F)c5nc(C)n(C(C)C)c5c4)n3)nc2)CC1 [Abemaciclib] | 0 | 0.04695 | 0 | 0.04695 | 0.05816 | 0.06221 | 
6 | CN(C)C/C=C/C(=O)Nc1cc2c(Nc3ccc(F)c(Cl)c3)ncnc2cc1O[C@H]1CCOC1 [Afatinib] | 0 |  | 0 |  |  | 0 | 
7 | COc1cc(Nc2ncc3c(C)nc(-c4cc5ccccc5[nH]4)n3n2)cc(OC)c1OC [GW869516X] |  |  |  |  |  |  | potency estimated from few doses (CSNK2A1 (CK2); Kinobeads two-dose screen (binding), read-out: Kdapp CK2 (CSNK2A1)): 0.078 µM; CATDSCK2 (CSNK2A1 (CK2); selectivity score from Kinobeads two-dose data): 1; potency estimated from few doses (CSNK2A2; CSNK2A2, read-out: Kinobeads Data): 0.056 µM
8 | N#CC1(c2ccc(NC(=O)c3cccnc3NCc3ccncc3)cc2)CCCC1 [Apatinib] | 0 | 0 | 0 | 0 | 0 | 0 | 
9 | C#Cc1cccc(Nc2ncnc3cc(OC)c(OC4CCN(C)CC4)cc23)c1 [BI00007366] | 0 | 0 |  |  |  |  | potency estimated from few doses (GAK; Kinobeads two-dose, Drugmatrix - all 2, read-out: apparent Kd GAK): 0.634 µM
